Test results published in ChEMBL document CHEMBL3714716, “Modulators of the relaxin receptor 1” (2015).
Activity calls are given as the source filed them. The rule behind the calls is not given here.

Columns and labels:
[1] = target: T1, Relaxin receptor 1 (Homo sapiens) (UniProt Q9HBX9); experiment: Agonist activity at RXFP1 receptor (unknown origin) expressed in HEK293 cells assessed as stimulation of cAMP production incubated for 30 mins by TR-FRET based HTRF assay relative to forskolin; assay type: functional, cell-based
T1 sequence (whole entry): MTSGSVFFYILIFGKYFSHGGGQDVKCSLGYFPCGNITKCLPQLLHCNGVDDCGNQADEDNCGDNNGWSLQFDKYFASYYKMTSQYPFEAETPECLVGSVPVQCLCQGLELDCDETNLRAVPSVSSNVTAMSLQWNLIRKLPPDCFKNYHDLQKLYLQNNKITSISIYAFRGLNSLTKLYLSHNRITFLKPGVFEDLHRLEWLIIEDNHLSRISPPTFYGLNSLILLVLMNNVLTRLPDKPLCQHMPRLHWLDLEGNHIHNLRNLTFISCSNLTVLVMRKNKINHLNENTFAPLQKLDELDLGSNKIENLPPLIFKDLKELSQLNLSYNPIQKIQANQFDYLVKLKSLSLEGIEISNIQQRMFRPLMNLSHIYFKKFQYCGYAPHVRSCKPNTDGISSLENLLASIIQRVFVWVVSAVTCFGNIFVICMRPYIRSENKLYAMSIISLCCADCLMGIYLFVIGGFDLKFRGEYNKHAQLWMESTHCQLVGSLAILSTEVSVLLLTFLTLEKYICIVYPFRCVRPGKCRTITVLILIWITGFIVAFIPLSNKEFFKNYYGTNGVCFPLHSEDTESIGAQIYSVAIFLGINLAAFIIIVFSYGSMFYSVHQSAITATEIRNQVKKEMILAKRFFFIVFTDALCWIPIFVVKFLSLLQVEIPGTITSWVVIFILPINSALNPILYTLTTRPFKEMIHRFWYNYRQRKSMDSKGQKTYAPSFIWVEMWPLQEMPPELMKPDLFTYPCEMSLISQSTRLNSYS

Relaxin receptor 1 = target: T2, Relaxin receptor 1 (Homo sapiens, UniProt Q9HBX9); experiment: Agonist activity at RXFP1 receptor (unknown origin) expressed in HEK293 cells assessed as stimulation of cAMP production incubated for 30 mins by TR-FRET based HTRF assay; assay type: functional, cell-based
T2 sequence (Q9HBX9 whole entry): T1 sequence (whole entry)

SMILES	%max [1]	AC50 (Relaxin receptor 1; read-out: AC50) [µM]	AC50 (Relaxin receptor 1; hek293)
O=C(NCc1cccc(C(F)(F)F)c1)c1ccccc1NC(=O)C1CCCCC1	inactive		
CC(C)(C)c1cccc(NC(=O)c2ccccc2NC(=O)C2CCCCC2)c1	70%	2.65	
CC(=O)Nc1ccccc1C(=O)Nc1cccc(C(F)(F)F)c1	51%	74.7	
O=C(Nc1ccc(Br)cc1)c1ccccc1NC(=O)C1CCCCC1	50%	118	
O=C(Nc1ccccc1C(=O)Nc1cccc(C(F)(F)F)c1)c1ccc(C(F)(F)F)cc1	93%	5.93	
O=C(Nc1cccc(-c2cccc(C(F)(F)F)c2)c1)c1ccccc1NC(=O)C1CCCCC1	inactive		
CCOc1ccccc1C(=O)Nc1ccccc1CNc1cccc(S(=O)(=O)C(F)(F)F)c1	77%	2.65	
O=C(Nc1ccccc1F)c1ccccc1NC(=O)C1CCCCC1	inactive		Not Active
O=C(Nc1cccc(C(F)(F)F)c1)c1ccccc1OCCN1CCNCC1	inactive		Not Active
CCOc1ccccc1-c1nc2c(C(=O)Nc3cccc(S(=O)(=O)C(F)(F)F)c3)cccc2[nH]1	inactive		Not Active
O=C(Nc1cccc(F)c1)c1ccccc1NC(=O)C1CCCCC1	81%	13.3	
O=C(Nc1cccc(C(F)(F)F)c1)c1ccccc1NCc1ccccc1	69%	47.1	
O=C(Nc1cccc(C(F)(F)F)c1)c1ccccc1NC(=O)c1cccc2ccccc12	81%	5.93	
CCOc1ccccc1C(=O)Nc1ccccc1-c1nc2cc(C(F)(F)F)ccc2[nH]1	31%	149	
O=C(Nc1cccc(C(F)(F)F)c1)c1ccccc1Nc1cccc(C(F)(F)F)c1	93%	4.2	
O=C(NCc1ccc(C(F)(F)F)cc1)c1ccccc1NC(=O)C1CCCCC1	inactive		Not Active
CCOc1ccccc1-c1nc2ccccc2c2nc3ccc(C(F)(F)F)cc3n12		188	

SMILES	%max [1]	AC50 (Relaxin receptor 1; read-out: AC50) [µM]	AC50 (Relaxin receptor 1; hek293)
O=C(Nc1cccc(-c2ccccc2C(F)(F)F)c1)c1ccccc1NC(=O)C1CCCCC1	74%	2.65	
COc1cccc(OC)c1C(=O)Nc1ccccc1C(=O)Nc1cccc(C(F)(F)F)c1	42%	7.47	
O=C(Nc1cccc(Cl)c1)c1ccccc1NC(=O)C1CCCCC1	89%	3.34	
CC(=O)c1ccc(C(=O)Nc2ccccc2C(=O)Nc2cccc(C(F)(F)F)c2)cc1	71%	5.93	
O=C(Nc1ccccc1C(=O)Nc1cccc(C(F)(F)F)c1)c1cc(C(F)(F)F)cc(C(F)(F)F)c1	94%	4.2	
O=C(Nc1cccc(C(F)(F)F)c1)c1ccccc1NC(=O)C1CCCCCC1	75%	2.11	
COc1ccc(C(=O)Nc2ccccc2C(=O)Nc2cccc(C(F)(F)F)c2)cc1	71%	9.4	
O=C(Nc1ccccc1C(=O)Nc1cccc(C(F)(F)F)c1)c1ccccc1Br	78%	7.47	
O=C(Nc1ccc(C(F)(F)F)cc1)c1ccccc1NC(=O)C1CCCCC1	46%	94	
O=C(Nc1cccc(-c2ccccc2)c1)c1ccccc1NC(=O)C1CCCCC1	inactive		
O=C(Nc1cccc(C(F)(F)F)c1)c1ccccc1OCCN1CCOCC1	inactive		Not Active
CCOc1ccccc1C(=O)Nc1ccccc1C(=O)Nc1cncc(I)c1	72%		
C/C=C\c1cccc(NC(=O)c2ccccc2NC(=O)c2ccccc2OCC)c1	91%		
COc1ccccc1C(=O)N(C)c1ccccc1C(=O)Nc1cccc(C(F)(F)F)c1	inactive		
Cc1ccccc1NC(=O)c1ccccc1NC(=O)C1CCCCC1	inactive		
CCOc1ccccc1S(=O)(=O)Nc1ccccc1C(=O)Nc1cccc(S(=O)(=O)C(F)(F)F)c1	inactive		
COc1ccccc1C(=O)Nc1cccc(C(=O)Nc2cccc(C(F)(F)F)c2)c1	inactive		
